Measured values reported in article PMC10887108, “Novel Brain-Penetrant, Small-Molecule Tubulin Destabilizers for the Treatment of Glioblastoma” (Biomedicines, 2024).
In brackets after ≈: the same amount, converted by molar mass. Several values for one entry are separate records, joined by “and”; a condition that tells them apart may be missing. Equal entries are not always repeated. Where two headings read alike, the source gives them in different places.

Legend:
[1] = Kinetic solubility in phosphate buffer; format: physicochemical; details: 100 mM phosphate buffer, 1% DMSO
Experimental: Kinetic solubility was determined in phosphate buffer. The compound (4 µL, 10 mM DMSO) was added to the buffer (396 μL 100 mM phosphate buffer, final 1% DMSO) and shaken at 1000 rpm at RT for 1 h. Samples were filtered (Millipore MSSLBPC10; Burlington, MA, USA), the primary filtrate was discarded, and the subsequent filtrate was collected. The supernatant solution was diluted 10× with DMSO. Test samples (10 µL) and working standard curve samples were added to the stop solution (100 μL, containing internal standard) and water/0.1% FA (100 μL). Samples were analyzed by LC-MS/MS. Albendazole, propranolol, and 4,5-diphenylimidazole were used as positive controls.

[2] = Plasma protein binding (dialysis); format: in vitro ADME; details: range over mouse, rat, and human plasma
Experimental: Compounds (5 µM/0.2% DMSO) were tested in dialysis chambers. Blank dialysis buffer was added to the receiver side (100 μL), and plasma (100 μL) with test and reference compounds was added to the donor side of the chamber and incubated at 37 °C on an orbital shaker. Plasma was precipitated at 0 and 5 h. Aliquots from donor and receiver sides of the dialysis apparatus (25 μL) were added to sample preparation plates and mixed with aliquots of the opposite matrix (25 μL, blank buffer to plasma and vice versa). Samples were quenched with stop solution (400 μL) containing internal standard, vortexed at 600 rpm for 10 min, and centrifuged at 4000 rpm for 10 min. Supernatants were analyzed by LC-MS. Quinidine and warfarin were used as positive controls.

[3] = Metabolite profiling in cryopreserved hepatocytes; format: in vitro ADME; details: mouse, rat, dog, monkey, and human hepatocytes, 120 min
Experimental: Metabolite profiling was carried out by WuXi DMPK (Nanjing, China). RGN3067 (10 μM) was profiled in CD-1 mice (BioIVT, Westbury, NY, USA), SD rats (BioIVT), beagle dogs (BioIVT), cynomolgus monkeys (Research Institute for Liver Diseases [RILD], Shanghai, China), and human cryopreserved hepatocytes (BioIVT). The positive control was 7-ethoxycoumarin (30 μM). Compounds were added to hepatocytes (400 µL, 1 × 10^6/mL), and reactions were carried out at 37 °C in 5% CO2/saturated humidity for 120 min. Reactions were stopped by the addition of ice-cold ACN (400 μL). Samples were shaken at 300 rpm for 10 min, then centrifuged at 13,000× g for 10 min. Supernatants were evaporated under a stream of N2. Residue from the RGN3067 incubation was reconstituted with ACN: H2O (200 μL, v:v, 3:7), followed by centrifugation at 14,000 rpm for 10 min, and the supernatant was used for qualitative and semi-quantitative analysis using LC-UV/HRMS. A Shimadzu UFLC-20A with autosampler was used for chromatographic separation. Detection and structure were determined using a Thermo Q-Extractive mass spectrometer in full MS/MS^2 scan mode and Xcalibur Data Acquisition and Interpretation Software v4.2.

[4] = tested on: HMC3 microglial cells (non-tumorigenic); experiment: alamarBlue cell viability assay, HMC3; format: cell-based, human; details: HMC3, up to 10 μM
Experimental: Cells (100 µL/well) were seeded in 96-well tissue culture plates (Greiner Bio-One 650090; Kremsmünster, Austria). The plating density (cells/well) for each cell line was as follows: LN-18 (3000), U87 (4000), and HMC3 (5000). After overnight incubation, compounds were added to the cells (50 µL at 3× concentration, final 0.1% DMSO), and plates were incubated for 72 h. Cell viability was assessed by the addition of 25 µL of alamarBlue for a final concentration of 100 µM final concentration (Resazurin redox reagent, Sigma-Aldrich R7017; St. Louis, MO, USA). After a 4 h incubation, fluorescence was read on a CLARIOstar Plus plate reader (BMG Labtech, Ortenberg, Germany) at EX 570/EM 590 nm.

[5] = tested on: U87 cells (microtubule network); experiment: Immunofluorescent staining of cellular β-tubulin; format: cell-based, human; details: U87, compounds at their IC50 concentrations, 24 h
Experimental: U87 cells (4000/well) were plated in black 96-well plates (Perkin Elmer 6055302; Waltham, MA, USA) and grown overnight. Cells were treated with compounds for 24 h, fixed with 4% paraformaldehyde for 20 min, and permeabilized with FoxP3 permeabilization buffer (eBioscience/Thermo Fisher Scientific 00-5523-00; Waltham, MA, USA) for 10 min at RT. Cells were incubated with an anti-TUBB3 (Tuj1) antibody (1:1000; […] Technologies 60052; Vancouver, BC, Canada) labeled with Hoechst 33342 dye (1:2000; Thermo Fisher Scientific H3570; Waltham, MA, USA). Images (40×) were taken with an automated high-content imaging microscope (Operetta, Perkin Elmer; Waltham, MA, USA).

[6] = biological target: T1, Porcine tubulin (colchicine binding site) (Sus scrofa, UniProt P02554); experiment: Colchicine competitive binding assay (fluorescence); details: compound 50 µM, colchicine 10 μM, tubulin 20 μM
T1 construct: purchased Cytoskeleton, Inc. T240; host or cells: brain tissue (purified)

U87 cells = experiment: Reversibility (washout) cell viability assay; format: cell-based; details: Homo sapiens, U-87 MG
[7] = Plasma pharmacokinetics after oral dosing; format: in vivo, CD-1 mice; details: mouse, 100 mg/kg oral, CD-1 male mice
Experimental: Pharmacokinetic studies were carried out by DMPK at WuXi AppTec, Inc. (Cranbury, NJ, USA). The pharmacokinetics of RGN3067 were evaluated in three male CD-1 mice. RGN3067 formulated as a 10 mg/mL solution (20% DMSO, 80% PEG400: PVP 95:5) was administered by oral gavage at a dose of 100 mg/kg. Plasma samples were drawn at 0.5, 1, 2, 4, 6, 10 and 24 h. Samples were analyzed by LC-MS/MS. A calibration curve was established using Waters ACQUITY UPLC BEH C18 column and formic acid in water and formic acid in acetonitrile as mobile phase. Tolbutamide and labetalol were used as internal standards for LC-MS/MS analysis. Compound was detected using electrospray ionization (ESI) positive detection. Pharmacokinetic parameters were calculated using the PO-noncompartmental linear model in Phoenix WinNonlin software v8.3 (Certara, Princeton, NJ, USA).

For `CO[C@H]1C[C@@H](C(=O)NC(=O)Nc2ccc(Oc3ccc(Cl)cn3)c(C)c2)C1` [RGN3067], the solubility kinetic at 1 h [1] was 5.7 µM (≈ 2.22 µg/mL), the fraction unbound at 5 h, 5 µM [2] was 0.018 to 0.026 and the “number of metabolites detected and identified” value [3] was 10. For the same compound, the “inhibition of cell viability” value [4] was “does not significantly inhibit”, the “effect on tubulin organization / MT network morphology” value [5] was “varying levels of disruption of tubulin organization” and the “reduction of colchicine–tubulin fluorescence relative to control” value [6] was 24%. It also gave an IC50 (U87 cells; U87, compound left in medium, 72 h, read-out: IC50 cell viability, no-washout) of 571 nM, an IC50 (U87 cells; U87, compound washed out after 6 h, then 72 h, read-out: IC50 cell viability, after washout) of over 10000 nM and an AUC [7] of 51200 ng·h/mL. The Cmax [7] was 7810 ng/mL and 20 µM, the Tmax [7] was 2 h and the half-life [7] was 3.61 ± 1.94 h.
